Data reported in patent US20250041195A1, “COLLAGEN TYPE III COMPOSITION PREPARED FROM FIBROBLAST EXTRACELLULAR MATRIX” (SINO UNITED (BEIJING) BIOMEDICAL TECHNOLOGY CO., LTD., priority 2022, published 2025).
Where a SMILES comes first, the peptide text is derived from it.

Assays:
human fibroblasts = type: cell-based; conditions: 48 h, 200 μg/mL
Method: The active polypeptide of the present application with a sequence of EMHKMEPCPMYRRHLG was serially diluted in a 96-well cell culture plate to 5, 10, 25, 50, 100, 200 μg/mL, with 5 duplicated wells per concentration. The above operations were all performed under sterile conditions.
For the passage of the cell lines isolated in Example 1, the cell culture medium was firstly poured out, and the cells were washed twice with 2 mL of PBS. The liquid was discarded, and 1 mL of 0.25% (mass fraction) trypsin solution was added for digestion for 3 min until the cells were completely detached. […] The cell solution was adjusted to a concentration of 5.0×10^5 cells/mL and cultured at 37° C. under 5% carbon dioxide and saturated humidity conditions. After 24 h of passaging, the cells were used for pharmacological activity assay. The above operations were all performed under sterile conditions.
The cells were inoculated into a 96-well cell culture plate, with 100 μL per well, and incubated at 37° C. under 5% carbon dioxide and saturated humidity conditions. […] The absorbance was determined at 570 nm by a microplate reader, with 630 nm as a reference wavelength. The results were recorded and the cell viability was calculated according to the following formula: cell viability=(absorbance A570 of the experimental group/absorbance A570 of the blank control group)×100%.

mice = assay: General chronic toxicology study in mice; type: in vivo; conditions: duration ≥6 months, ICH S4 guidelines
Excerpt: The Fmoc polypeptide synthesis method is a conventional method used by a person skilled in the art to prepare a polypeptide. In the case that a person skilled in the art knows that the polypeptide to be prepared needs to comprise an amino acid sequence as shown in EMHKMEPCPMYRRHLG, in combination with the existing Fmoc polypeptide synthesis method, the polypeptide to be protected in the present application may be obtained.

CSCC[C@H](NC(=O)[C@H](CCCCN)NC(=O)[C@H](Cc1c[nH]cn1)NC(=O)[C@H](CCSC)NC(=O)[C@@H](N)CCC(=O)O)C(=O)N[C@@H](CCC(=O)O)C(=O)N1CCC[C@H]1C(=O)N[C@@H](CS)C(=O)N1CCC[C@H]1C(=O)N[C@@H](CCSC)C(=O)N[C@@H](Cc1ccc(O)cc1)C(=O)N[C@@H](CCCNC(=N)N)C(=O)N[C@@H](CCCNC(=N)N)C(=O)N[C@@H](Cc1c[nH]cn1)C(=O)N[C@@H](CC(C)C)C(=O)NCC(=O)O [active polypeptide, EMHKMEPCPMYRRHLG] (H-EMHKMEPCPMYRRHLG-OH)
cell viability (human fibroblasts): 265.3%±4.52 | toxic side effects in general chronic toxicology study (mice): no significant toxic side effects
